Data set [1] relates to SARS-CoV-2. The data set can be described thus: Initial pilot study, non-human primate model, organ assessment at autopsy. The data set is classed as in vivo, African Green Monkey. As to conditions: 100 mg/kg/day, 7 days, pretreated; autopsy day 7. Here is the method: An initial pilot study was conducted to determine the potential for efficacy of K777 against SARS-CoV-2 in a non-human primate model (African Green Monkey). The study included six subjects (N=6), with two controls receiving vehicle only and four receiving K777. Each subject was pretreated with K777 (100 mg/kg) or placebo (control). Each subject was then inoculated with SARS-CoV-2 at […] (3-4 hours after first dose of K777). Each subject was then treated with K777 for 6 additional days (7 days total) (100 mg/kg/day). Each subject was then sacrificed and an autopsy was performed at day 7. During the study, daily measurement of viral titers was performed via BAL, nasal swabs, and pharyngeal swabs. During autopsy, organ assessment was performed. The results are shown in Table 2.1 below and depicted in FIG. 4.

A short description of data set [2]: Cytotoxicity to host cells, Calu-3. Particulars: human, Calu-3 cells. It is filed as cell-based. Here is the method: (§1) Controlled […] assays were conducted to measure the half-maximal effective concentration (EC50) of K777 required to prevent entry of SARS-CoV-2 in various cell lines, as well as cytotoxicity to the host cells (CC50).
The nature of data set [3]: Cytotoxicity to host cells, HeLa/ACE2. Particulars: human. The data set is classed as cell-based. The method, then: as §1
Data set [4] concerns SARS-CoV-2. The data set can be described thus: In vitro cytopathogenic effect / EC100 assay, K11777 and EIDD-1931, Vero E6. The data set is classed as cell-based. Particulars: for EC100: compound alone. Here is the method: Controlled in vitro assays were conducted to measure the concentrations of K11777 and EIDD-1931 in combination required to induce 100% maximal response (EC100) for SARS-CoV-2 activity in the Vero E6 cell line. The concentrations of the combination are also compared to the concentrations required for each compound to achieve the same result individually.
Table 4 is split into two portions (a) and (b) above to accommodate page size. The first columns of 4(a) and (b) show concentration values from 10 μM (micromolar) to 0.078 μM. […] The designation “ND” indicates no cytopathogenic effect was detected.

The test system of data set [5] is SARS-CoV-2. Nature of the data set: microbe, parasite or virus in culture. The data set is classed as cell-based. As to conditions: read-out: Inhibition of Viral Infectivity EC50.
In data set [6] the test system is SARS-CoV-2. Nature of the data set: In vitro cytopathogenic effect / EC100 assay, K11777 and Remdesivir, Vero E6. The data set is classed as cell-based. As to conditions: for EC100: compound alone. The method, then: Controlled in vitro assays were conducted to measure the concentrations of K11777 and Remdesivir in combination required to induce 100% maximal response (EC100) for SARS-CoV-2 activity in the Vero E6 cell line. The concentrations of the combination are also compared to the concentrations required for each compound to achieve the same result individually.
The designation “ND” indicates no cytopathogenic effect was detected. The designation “C” indicates the composition itself caused a cytotoxic effect. The designation “n/a” means no observation was made.

For data set [7], the system named is SARS-CoV-2. Nature of the data set: Follow up pilot study, viral load in pharyngeal and nasal swabs and BAL. The data set is classed as in vivo, African Green Monkey.
A short description of data set [8]: Cytotoxicity to host cells, Vero E6. It is filed as cell-based. As to conditions: African green monkey. The method, then: as §1
The subject of data set [9] is SARS-CoV-2. The data set can be described thus: Follow up pilot study, non-human primate model, organ assessment at autopsy. The data set is classed as in vivo, African Green Monkey. Particulars: for Lung weight % of weight / Lung weight Left lobe / Lung weight Right lobe / Lung weight Total: 7 days, autopsy day 7. The method, then: Following the initial pilot study, a follow up pilot study was conducted to further explore the potential for efficacy of K777 against SARS-CoV-2 in a non-human primate model (African Green Monkey). The study included eight subjects (N=8), with two controls and six receiving K777. Unlike in the initial pilot, in this follow-up pilot no subjects were pretreated with K777. Each subject was inoculated with SARS-CoV-2 for 8 hours. Each subject was then treated with K777 for 7 days (33 mg/kg/day (n=3) or 100 mg/kg/day (n=3)) or placebo (n=2). Each subject was then sacrificed, and an autopsy was performed at day 7. During the study, measurements of viral load were determined from serial nasal and pharyngeal swabs as well as brochoalveolar fluid (BAL) samples. During autopsy, organ assessment was performed. The results are shown in Tables 2.2, 2.3, 2.4 and 2.5 below and depicted in FIGS. 5 to 12. FIGS. 7 to 10 depict histological slides of lung tissue taken from the subjects in the follow up pilot study after completion of the study. FIG. 6 depicts histological slides of lung tissue taken from a normal human lung and from a human lung with diffuse alveolar damage (DAD) for comparison. In FIGS. 7 to 10, NB numbers are subject identifiers. In FIGS. 8 to 10, “RL” means right lung and “LL” means left lung. FIG. 11 depicts the histopathology shown in FIGS. 8 to 10 in one chart for side-by-side comparison. FIG. 12 depicts viral load for each group on day 1 and day 7 of the follow up pilot study.

Data set [10] is described as follows: Cytotoxicity to host cells, A549/ACE2. It is filed as cell-based. Particulars: human. The method, then: as §1
Setting [11] is: conc 0.078 uM (of K777 in combinations), Vero E6.
The mark [12] stands for this setting: conc 0.3125 uM (of K777 in combinations), Vero E6.
Setting [13] is: conc 0.1 μM (of K11777 in combinations).
Where [14] appears, read: conc 0.3 μM (of K11777 in combinations).
Setting [15] is: conc 1 μM (of K11777 in combinations).
Where [16] appears, read: African Green Monkey, SARS-CoV-2.

Molecules are shown by their SMILES. Values joined by “and” are separate entries in the source; they are usually repeats but may differ in a detail not shown here. Identical values can stand only once. Like-named read-outs stand apart in the source and are kept apart here.

In the case of `CN1CCN(C(=O)N[C@@H](Cc2ccccc2)C(=O)N[C@H](/C=C/S(=O)(=O)c2ccccc2)CCc2ccccc2)CC1` [K777], the “Lung weight % of weight” value is 0.52% and 0.49% and 0.51% and 0.58% in data set [1]; 0.66% and 0.95% and 0.54% in [9] (33 mg/kg/day); 0.50% and 0.46% and 0.56% in data set [9] (100 mg/kg/day). The “Lung weight Left lobe” value was 13.06 g and 12.79 g and 19.06 g and 21.72 g in [1]; 24 g and 28 g and 17 g in data set [9] (33 mg/kg/day); 14 g and 15 g in data set [9] (100 mg/kg/day). In addition, the “Lung weight Right lobe” value in [1] is 17.22 g and 16.99 g and 14.43 g and 16.84 g; in data set [9] (33 mg/kg/day), 20 g and 28 g and 24 g; in [9] (100 mg/kg/day), 18 g and 19 g. Moreover, the “Lung weight Total” value is 30.28 g and 29.78 g and 33.49 g and 38.56 g in data set [1]; 44 g and 56 g and 41 g in data set [9] (33 mg/kg/day); 32 g and 33 g and 34 g in [9] (100 mg/kg/day). Further, in data set [1], the Lymph enlargement was 2 fold and 2.5 fold. For the same compound, the CC50 in [2], in data set [3], in data set [8] and in [10] was > 10 µM in each case. Besides, the EC100 in data set [4] (Vero E6) was 2.5 µM; in [6], 1 µM. Moreover, the cytopathogenic effect result is recorded as “CPE” in data set [4] (setting [11]); “CPE” in [4] (conc 0.156 uM (of K777 in combinations), Vero E6); “CPE” in [4] (setting [12]); “CPE” in data set [4] (conc 0.625 uM (of K777 in combinations), Vero E6); “CPE” in data set [4] (conc 1.25 uM (of K777 in combinations), Vero E6); “CPE” in data set [6] (setting [13]). In addition, the cytopathogenic effect result in data set [6] (setting [14]) and in [6] (setting [15]) was “CPE” throughout. Further, the EC50 was < 0.08 µM in data set [5] (Severe acute respiratory syndrome coronavirus 2, A549-ACE2, A549/ACE2); 3 to 5 µM in data set [5] (Severe acute respiratory syndrome coronavirus 2, Calu-3, Calu-3); 0.004 µM in data set [5] (Severe acute respiratory syndrome coronavirus 2, HeLa-ACE2, HeLa/ACE2). The “Viral Load -- Subgenomic E” value in [7] (30 mg/kg/day, BAL, d5) was 3.69E+04 Eq. VC/mL; in data set [7] (30 mg/kg/day, Nasal, d3), 1.62E+06 Eq. VC/mL; in data set [7] (30 mg/kg/day, Nasal, d5) it was 2.07E+04 Eq. VC/mL and 1.91E+04 Eq. VC/mL; in data set [7] (100 mg/kg/day, BAL, d3) it was 2.45E+06 Eq. VC/mL and 1.58E+06 Eq. VC/mL; in [7] (100 mg/kg/day, Nasal, d3), 7.94E+07 Eq. VC/mL; in data set [7] (100 mg/kg/day, Phary, d3), 3.34E+07 Eq. VC/mL and 2.04E+07 Eq. VC/mL and 3.29E+07 Eq. VC/mL. Also, the “Viral Load -- Genomic N1” value in data set [7] (30 mg/kg/day, Phary, d3) is 1.11E+09 Eq. VC/mL and 1.87E+09 Eq. VC/mL; in data set [7] (100 mg/kg/day, BAL, d1), 3.38E+08 Eq. VC/mL and 2.69E+08 Eq. VC/mL. The “Viral Load -- Subgenomic N” value in [7] (100 mg/kg/day, BAL, d3) was 1.31E+07 Eq. VC/mL and 7.93E+06 Eq. VC/mL; in [7] (100 mg/kg/day, BAL, d7), 1.40E+05 Eq. VC/mL; in data set [7] (100 mg/kg/day, Nasal, d7), 4.19E+06 Eq. VC/mL; in data set [7] (100 mg/kg/day, Phary, d7) it was 3.64E+07 Eq. VC/mL and 5.51E+07 Eq. VC/mL. The “viral load as compared to the vehicle” value in data set [7] (setting [16]) is “significantly reduced viral load as compared to the vehicle”. For the same compound, in [9] (setting [16]), the “lung damage (histopathology)” value is “protected the lung against diffuse alveolar damage (DAD) and ARDS-like lung damage”. For the same compound, the “lung to body weight ratios” value in data set [9] (both pilot studies) is on record as “able to maintain normal lung to body weight ratios”.

In the case of `O=c1[nH]/c(=N\O)ccn1[C@@H]1O[C@H](CO)[C@@H](O)[C@H]1O` [EIDD-1931, Beta-d-N4-hydroxycytidine, reference compound], the cytopathogenic effect entry in [4] was “CPE”; in data set [4] (setting [11]), “CPE”; in [4] (setting [12]) it was “CPE”; in data set [4] (conc 2.5 uM (of K777 in combinations), Vero E6) it was “CPE”. Also, the EC100 in data set [4] (Vero E6) was determined as 5 µM.

`CCC(CC)COC(=O)[C@H](C)N[P@](=O)(OC[C@H]1O[C@@](C#N)(c2ccc3c(N)ncnn23)[C@H](O)[C@@H]1O)Oc1ccccc1` [Remdesivir]: the EC100 in data set [6] is 3 µM. The cytopathogenic effect entry in data set [6] (conc 0.01 μM (of K11777 in combinations)), in data set [6] (conc 0.03 μM (of K11777 in combinations)), in [6] (setting [13]), in data set [6] (setting [14]), in [6] (setting [15]) and in data set [6] (conc 3 μM (of K11777 in combinations)) was “CPE” in each case.

For the origin of these results see US20230255957A1, “VIRAL ENTRY INHIBITORS AND RNA POLYMERASE INHIBITORS” (SELVA THERAPEUTICS, INC., priority 2020, published 2023).
